Measurements: patent US20260001928A1 (CORTERIA PHARMACEUTICALS, priority 2022, published 2026)
*1 amine or outer side, *2 acyl side, *3 side chain or, on linkers, in order; H or OH if unused. Where a SMILES comes first, the peptide text is derived from it. Side-chain parts run from the residue outwards. [ ]: non-standard residue; d: D form. The star is where a group is joined. C20 diacid = O=C(O)CCCCCCCCCCCCCCCCCCC(=O)*; γGlu = O=C(O)[C@H](CCC(=O)[*:2])N[*:1]; Myristoyl = CCCCCCCCCCCCCC(=O)*; Api = NC1(C(=O)O)CCNCC1; Pentanoyl = CCCCC(=O)*; AEEA = NCCOCCOCC(=O)O; Aib = CC(C)(N)C(=O)O

Columns and labels:
human CRF2a receptor = molecular target: T1, human CRF2a receptor (Homo sapiens, UniProt Q13324); experiment: Activity at human CRF2a receptor, cAMP functional assay in TeloHEAC cells; assay type: cell-based; details: TeloHEAC cells stably expressing human CRF2a receptor, relative to urocortin 2 (100 nM = 100%)
T1 construct: expressed in transfected cells; host or cells: TeloHEAC cells
T1 sequence (Q13324 1-411): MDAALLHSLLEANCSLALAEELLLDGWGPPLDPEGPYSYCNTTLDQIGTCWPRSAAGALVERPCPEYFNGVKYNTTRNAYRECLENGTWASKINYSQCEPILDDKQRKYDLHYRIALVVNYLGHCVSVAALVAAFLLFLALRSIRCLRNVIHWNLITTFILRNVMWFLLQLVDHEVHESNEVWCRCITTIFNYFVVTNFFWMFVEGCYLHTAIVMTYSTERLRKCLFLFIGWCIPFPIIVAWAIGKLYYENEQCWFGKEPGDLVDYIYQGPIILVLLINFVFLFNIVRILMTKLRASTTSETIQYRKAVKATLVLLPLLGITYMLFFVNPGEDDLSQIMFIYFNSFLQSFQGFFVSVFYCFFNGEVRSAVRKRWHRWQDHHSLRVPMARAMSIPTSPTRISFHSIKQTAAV
Outline: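 TeloHEAC cells stably expressing human CRF2a (10000 cells/well) were treated with 16-point 1:2 compound dilutions in HBSS/20 mM HEPES with IBMX for 30 min at 37° C. cAMP was read by HTRF (665/620 nm ratio). EC50 was the concentration giving 50% activation, with 100 nM urocortin 2 set as 100%.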

CFR1R receptor = molecular target: T2, CFR1R receptor (Homo sapiens, UniProt P34998); experiment: Activity at anti-target CFR1R receptor, cAMP assay in CRF1R-overexpression CHO-K1 cells; assay type: cell-based; details: 100% = Sauvagine at 100 nM; for EC50: cAMP
T2 construct: host or cells: CHO-K1 (clone 2)
T2 sequence (P34998 24-415): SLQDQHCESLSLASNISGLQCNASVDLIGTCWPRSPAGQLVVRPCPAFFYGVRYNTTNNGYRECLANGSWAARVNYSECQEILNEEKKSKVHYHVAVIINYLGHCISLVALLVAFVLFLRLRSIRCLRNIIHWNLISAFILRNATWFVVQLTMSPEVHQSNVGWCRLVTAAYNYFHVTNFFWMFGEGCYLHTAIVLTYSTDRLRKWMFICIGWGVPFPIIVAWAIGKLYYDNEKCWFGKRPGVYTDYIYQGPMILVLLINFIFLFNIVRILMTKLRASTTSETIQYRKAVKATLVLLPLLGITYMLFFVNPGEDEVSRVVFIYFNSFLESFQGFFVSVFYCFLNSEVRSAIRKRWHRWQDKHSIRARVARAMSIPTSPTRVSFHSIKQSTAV
Outline: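 Grow clone 2 to near confluence at 37° C. under 5% CO2 in F12 (Hams) with 10% FBS and G418, harvest, and freeze in 10% DMSO. Thaw and plate at 4000 cells/well. Then proceed per the TeloHAEC method, normalising to Sauvagine 100 nM as maximum.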

EC50 (human CRF2a receptor)	Emax (% I) (CFR1R receptor)	EC50 (CFR1R receptor)	Compound
0.09 nM	70 % I		CCCCCCCCCCCCCC(=O)N[C@H](C(=O)N[C@@H](CC(C)C)C(=O)N[C@@H](CO)C(=O)N[C@@H](CC(C)C)C(=O)N[C@@H](CC(=O)O)C(=O)N[C@@H](C(=O)N1CCC[C@H]1C(=O)N[C@H](C(=O)N[C@@H](CCCCN)C(=O)N[C@@H](CC(C)C)C(=O)N[C@@H](CCCCNC(=O)CC[C@H](NC(=O)CCCCCCCCCCCCCCCCCCC(=O)O)C(=O)O)C(=O)N[C@@H](CCCCN)C(=O)N[C@H](C(=O)N[C@@H](CC(C)C)C(=O)N[C@@H](CC(C)C)C(=O)N[C@@H](CCC(=O)O)C(=O)N[C@@H](CCC(N)=O)C(=O)N[C@@H](CCC(=O)O)C(=O)N[C@@H](CCCCN)C(=O)N[C@@H](CCC(N)=O)C(=O)N[C@@H](CCCCN)C(=O)N[C@@H](CCCCN)C(=O)N[C@@H](CCC(N)=O)C(=O)N[C@@H](CCCNC(=N)N)C(=O)N[C@@H](CCC(=O)O)C(=O)N[C@@H](CCC(N)=O)C(=O)N[C@@H](C)C(=O)N[C@@H](CCC(=O)O)C(=O)N[C@H](C(=O)N[C@@H](CC(N)=O)C(=O)NC(C)(C)C(=O)N[C@@H](CCC(N)=O)C(=O)N[C@H](C(=O)N[C@@H](CC(C)C)C(=O)N[C@@H](C)C(=O)N[C@@H](CCC(N)=O)C(=O)N[C@H](C(N)=O)C(C)C)[C@@H](C)CC)[C@@H](C)O)[C@@H](C)CC)[C@@H](C)CC)C(C)C)C(C)C [compound 225] (Myristoyl-VLSLD[dV]PIKLK([γGlu-C20 diacid])KILLEQEKQKKQREQAETN[Aib]QILAQV-NH2)
0.19 nM	62 % I		CCCCC(=O)N[C@H](C(=O)N[C@@H](CC(C)C)C(=O)N[C@@H](CO)C(=O)N[C@@H](CC(C)C)C(=O)N[C@@H](CC(=O)O)C(=O)N[C@@H](C(=O)N1CCC[C@H]1C(=O)N[C@H](C(=O)NCC(=O)N[C@@H](CC(C)C)C(=O)N[C@@H](CCCCNC(=O)CC[C@H](NC(=O)CCCCCCCCCCCCCCCCCCC(=O)O)C(=O)O)C(=O)N[C@@H](CCCCN)C(=O)N[C@H](C(=O)N[C@@H](CC(C)C)C(=O)N[C@@H](CC(C)C)C(=O)N[C@@H](CCC(=O)O)C(=O)N[C@@H](CCC(N)=O)C(=O)N[C@@H](CCC(=O)O)C(=O)N[C@@H](CCCCN)C(=O)N[C@@H](CCC(N)=O)C(=O)N[C@@H](CCCCN)C(=O)N[C@@H](CCCCN)C(=O)N[C@@H](CCC(N)=O)C(=O)N[C@@H](CCCNC(=N)N)C(=O)N[C@@H](CCC(=O)O)C(=O)N[C@@H](CCC(N)=O)C(=O)N[C@@H](C)C(=O)N[C@@H](CCC(=O)O)C(=O)N[C@H](C(=O)N[C@@H](CC(N)=O)C(=O)NC(C)(C)C(=O)N[C@@H](CCC(N)=O)C(=O)N[C@H](C(=O)N[C@@H](CC(C)C)C(=O)N[C@@H](C)C(=O)N[C@@H](CCC(N)=O)C(=O)N[C@H](C(N)=O)C(C)C)[C@@H](C)CC)[C@@H](C)O)[C@@H](C)CC)[C@@H](C)CC)C(C)C)C(C)C [compound 228] (Pentanoyl-VLSLD[dV]PIGLK([γGlu-C20 diacid])KILLEQEKQKKQREQAETN[Aib]QILAQV-NH2)
0.22 nM	4 % I	> 250 nM	CC[C@H](C)[C@H](NC(C)=O)C(=O)N[C@H](C(=O)N[C@@H](CC(C)C)C(=O)N[C@@H](CO)C(=O)N[C@@H](CC(C)C)C(=O)N[C@@H](CC(=O)O)C(=O)N[C@@H](C(=O)N1CCC[C@H]1C(=O)N[C@H](C(=O)N[C@@H](CCCCN)C(=O)N[C@@H](CC(C)C)C(=O)N[C@@H](CCCCNC(=O)COCCOCCNC(=O)COCCOCCNC(=O)CC[C@H](NC(=O)CCCCCCCCCCCCCCCCCCC(=O)O)C(=O)O)C(=O)N[C@@H](CCCCN)C(=O)N[C@H](C(=O)N[C@@H](CC(C)C)C(=O)N[C@@H](CC(C)C)C(=O)N[C@@H](CCC(=O)O)C(=O)N[C@@H](CCC(N)=O)C(=O)N[C@@H](CCC(=O)O)C(=O)N[C@@H](CCCCN)C(=O)N[C@@H](CCC(N)=O)C(=O)N[C@@H](CCCCN)C(=O)N[C@@H](C)C(=O)N[C@@H](CCC(N)=O)C(=O)N[C@@H](CCCNC(=N)N)C(=O)N[C@@H](CCC(=O)O)C(=O)N[C@@H](CCC(N)=O)C(=O)N[C@@H](C)C(=O)N[C@@H](CCC(=O)O)C(=O)N[C@H](C(=O)N[C@@H](CC(N)=O)C(=O)NC(C)(C)C(=O)N[C@@H](CCC(N)=O)C(=O)N[C@H](C(=O)N[C@@H](CC(C)C)C(=O)N[C@@H](C)C(=O)N[C@@H](CCC(N)=O)C(=O)N[C@H](C(N)=O)C(C)C)[C@@H](C)CC)[C@@H](C)O)[C@@H](C)CC)[C@@H](C)CC)C(C)C)C(C)C [compound 240] (Ac-IVLSLD[dV]PIKLK([AEEA-AEEA-γGlu-C20 diacid])KILLEQEKQKAQREQAETN[Aib]QILAQV-NH2)

Continued, molecule first:

Compound	EC50 (human CRF2a receptor)	Emax (% I) (CFR1R receptor)	EC50 (CFR1R receptor)
CC[C@H](C)[C@H](NC(C)=O)C(=O)N[C@H](C(=O)N[C@@H](CC(C)C)C(=O)N[C@@H](CO)C(=O)N[C@@H](CC(C)C)C(=O)N[C@@H](CC(=O)O)C(=O)N[C@@H](C(=O)N1CCC[C@H]1C(=O)N[C@H](C(=O)NCC(=O)N[C@@H](CC(C)C)C(=O)N[C@@H](CCCCNC(=O)CC[C@H](NC(=O)CCCCCCCCCCCCCCCCCCC(=O)O)C(=O)O)C(=O)N[C@@H](CCCCN)C(=O)N[C@H](C(=O)N[C@@H](CC(C)C)C(=O)N[C@@H](CC(C)C)C(=O)N[C@@H](CCC(=O)O)C(=O)N[C@@H](CCC(N)=O)C(=O)N[C@@H](CCC(=O)O)C(=O)N[C@@H](CCCCN)C(=O)N[C@@H](CCC(N)=O)C(=O)N[C@@H](CCCCN)C(=O)N[C@@H](CCCCN)C(=O)N[C@@H](CCC(N)=O)C(=O)N[C@@H](CCCNC(=N)N)C(=O)N[C@@H](CCC(=O)O)C(=O)N[C@@H](CCC(N)=O)C(=O)N[C@@H](C)C(=O)N[C@@H](CCC(=O)O)C(=O)N[C@H](C(=O)N[C@@H](CC(N)=O)C(=O)NC(C)(C)C(=O)N[C@@H](CCC(N)=O)C(=O)N[C@H](C(=O)N[C@@H](CC(C)C)C(=O)N[C@@H](C)C(=O)N[C@@H](CCC(N)=O)C(=O)N[C@H](C(N)=O)C(C)C)[C@@H](C)CC)[C@@H](C)O)[C@@H](C)CC)[C@@H](C)CC)C(C)C)C(C)C [compound 226] (Ac-IVLSLD[dV]PIGLK([γGlu-C20 diacid])KILLEQEKQKKQREQAETN[Aib]QILAQV-NH2)	0.18 nM	82 % I	42.2 nM
CC[C@H](C)[C@H](NC(C)=O)C(=O)N[C@H](C(=O)N[C@@H](CC(C)C)C(=O)N[C@@H](CO)C(=O)N[C@@H](CC(C)C)C(=O)N[C@@H](CC(=O)O)C(=O)N[C@@H](C(=O)N1CCC[C@H]1C(=O)N[C@H](C(=O)NCC(=O)N[C@@H](CC(C)C)C(=O)N[C@@H](CCCCNC(=O)CC[C@H](NC(=O)CCCCCCCCCCCCCCCCCCC(=O)O)C(=O)O)C(=O)N[C@@H](CCCCN)C(=O)N[C@H](C(=O)N[C@@H](CC(C)C)C(=O)N[C@@H](CC(C)C)C(=O)N[C@@H](CCC(=O)O)C(=O)N[C@@H](CCC(N)=O)C(=O)N[C@@H](CCC(=O)O)C(=O)N[C@@H](CCCCN)C(=O)N[C@@H](CCC(N)=O)C(=O)N[C@@H](CCCCN)C(=O)N[C@@H](CCCCN)C(=O)N[C@@H](CCC(N)=O)C(=O)N[C@@H](CCCNC(=N)N)C(=O)N[C@@H](CCC(=O)O)C(=O)N[C@@H](CCC(N)=O)C(=O)N[C@@H](C)C(=O)N[C@@H](CCC(=O)O)C(=O)N[C@H](C(=O)N[C@@H](CC(N)=O)C(=O)NC1(C(=O)N[C@@H](CCC(N)=O)C(=O)N[C@H](C(=O)N[C@@H](CC(C)C)C(=O)N[C@@H](C)C(=O)N[C@@H](CCC(N)=O)C(=O)N[C@H](C(N)=O)C(C)C)[C@@H](C)CC)CCNCC1)[C@@H](C)O)[C@@H](C)CC)[C@@H](C)CC)C(C)C)C(C)C [compound 227] (Ac-IVLSLD[dV]PIGLK([γGlu-C20 diacid])KILLEQEKQKKQREQAETN[Api]QILAQV-NH2)	0.2 nM	97 % I	
